Test results: patent US5043450A, “8-alkoxyquinolonecarboxylic acid and salts thereof” (priority 1986, dated 1991)
≈ marks a conversion by molar mass, not a printed value.

How the values were obtained:
Type in all cases: cell-based
E. coli ATCC 10536 = assay: Antibacterial spectra, MIC; settings: Escherichia coli, ATCC10536
P. mirabilis IID 994 = assay: Antibacterial spectra, MIC; settings: Proteus mirabilis, IID994; 10^6 cells/ml; Gram -; read-out: MIC
[1] = test system: Morganella morganii IID 602; assay: Antibacterial spectra, MIC; settings: IID602, 10^6 cells/ml, Gram -, read-out: MIC
[2] = test system: Klebsiella pneumoniae KY(GN)6445; assay: Antibacterial spectra, MIC
[3] = test system: Citrobacter freundii IID 976; assay: Antibacterial spectra, MIC; settings: IID976, 10^6 cells/ml, Gram -, read-out: MIC
[4] = test system: Pseudomonas aeruginosa V-1; assay: Antibacterial spectra, MIC; settings: V1, 10^6 cells/ml, Gram -, read-out: MIC
[5] = test system: Yersinia enterocolitica IID 981; assay: Antibacterial spectra, MIC; settings: IID981, 10^6 cells/ml, Gram -, read-out: MIC
C. perfringens KYA 13123 = assay: microbe, parasite or virus in culture; settings: Clostridium perfringens, KYA13123
[6] = test system: Peptostreptococcus anaerobius KYA 27337; assay: Antibacterial spectra, MIC; settings: KYA27337, 10^6 cells/ml, Gram +, read-out: MIC
[7] = test system: Veillonella parvula KYA 10790; assay: Antibacterial spectra, MIC; settings: KYA10790, 10^6 cells/ml, Gram -, read-out: MIC

CCOc1c(N2CCNCC2)c(F)cc2c(=O)c(C(=O)O)cn(C3CC3)c12 [Exp. 18, 1-cyclopropyl-6-fluoro-1,4-dihydro-8-ethoxy-4-oxo-7-(1-piperazinyl)-3-quinolinecarboxylic acid]
MIC (E. coli ATCC 10536): ≤ 0.05 µg/mL
MIC (P. mirabilis IID 994): 0.1 µg/mL (≈ 0.266 µM)
MIC [1]: 0.39 µg/mL (≈ 1.04 µM)
MIC [2]: ≤ 0.05 µg/mL
MIC [3]: 0.1 µg/mL (≈ 0.266 µM)
MIC [4]: 0.78 µg/mL (≈ 2.08 µM)
MIC [5]: 0.2 µg/mL (≈ 0.533 µM)
MIC (C. perfringens KYA 13123): 1.56 µg/mL (≈ 4.16 µM)
MIC [6]: 3.13 µg/mL (≈ 8.34 µM)
MIC [7]: 0.78 µg/mL (≈ 2.08 µM)
